# Laboratory results from patent US10143686B2, “Oxidosqualene cyclase as a protein target for anticancer therapeutics” (The Curators of the University of Missouri, priority 2010, dated 2018).
# Structures can show the parent of a compound that is named as a salt. Where two headings read alike, the source gives them in different places.
# Tested on: NCI-H23 lung cancer cells
# Test: SRB cell viability assay, NCI-H23
# Type: cell-based
# Settings: Homo sapiens
# Experimental: The effect of OSC inhibition was evaluated in additional cancer cell lines as well. Cancer cell lines may be purchased from ATCC (Manassas, Va.). The SRB assay has been employed for determination of the inhibitory effects of RO 48-8071 on growth of different cancer cells. Cells were seeded into 96-well plates and incubated overnight at 37° C. with 5% CO2. The culture medium was removed after 24 hours, and cells were washed with DMEM/F12 medium and then treated with various concentrations of RO 48-8071 in 5% FBS culture medium for 24 and 48 hours. Surviving or adherent cells were fixed in situ by withdrawing the growth medium, adding 100 μl PBS and 100 μl 50% trichloroacetic acid and then incubating at 4° C. for one hour. Cells were washed with ice-cold water, dried at room temperature (RT), and then stained with 50 μl 4% SRB for eight minutes at RT. Unbound dye was removed by washing with cold 1% acetic acid for five times, and plates were dried at RT. Bound stain was solubilized with 150 μl 10 mM Tris buffer and absorbance of samples was read at 520 nm with a SpecTRA MAX 190 microplate reader (Molecular Devices, Sunnyvale, Calif.). Six wells were used for each concentration, and each experiment was performed two to three times.
# Effect of RO 48-8071 on lung cancer cell line H23 viability. […] The culture mediums employed 10% FBS RPMI-1640 for culture and 5% FBS RPMI-1640 for treatment.
structure (smiles),measurement,setting,value
"C=CCN(C)CCCCCCOc1ccc(C(=O)c2ccc(Br)cc2)c(F)c1 [Ro 48-8071, 4′-[6-(Allylmethylamino)hexyloxy]-4-bromo-2′-fluorobenzophenone fumarate]",IC50,"24 hours, read-out: IC50 (μM) (24 hours)",14.2 ± 1.28 µM
same,IC50,"48 hours, read-out: IC50 (μM) (48 hours)",10.3 ± 0.303 µM
